Assay results from patent US8741894B2, “Arylsulfonamide CCR3 antagonists” (Axikin Pharmaceuticals, Inc., priority 2010, dated 2014).

Assays:
hERG channel = target: T1, hERG channel (Homo sapiens, UniProt Q12809); assay: hERG Receptor Binding Assay (125I-BeKm-1, membranes from HEK-293 cells containing transfected hERG channels); conditions: 1 hr at room temperature; for Ki at 1 h: human, pH 7.2, probe 125I-BeKm-1 (0.1 nM final); for Ki: 125I-BeKm-1 0.1 nM final
T1 construct: purchased Perkin Elmer RBHERGM400UA; host or cells: HEK-293 cells transfected with hERG (membrane preparation)
T1 sequence (Q12809 whole entry): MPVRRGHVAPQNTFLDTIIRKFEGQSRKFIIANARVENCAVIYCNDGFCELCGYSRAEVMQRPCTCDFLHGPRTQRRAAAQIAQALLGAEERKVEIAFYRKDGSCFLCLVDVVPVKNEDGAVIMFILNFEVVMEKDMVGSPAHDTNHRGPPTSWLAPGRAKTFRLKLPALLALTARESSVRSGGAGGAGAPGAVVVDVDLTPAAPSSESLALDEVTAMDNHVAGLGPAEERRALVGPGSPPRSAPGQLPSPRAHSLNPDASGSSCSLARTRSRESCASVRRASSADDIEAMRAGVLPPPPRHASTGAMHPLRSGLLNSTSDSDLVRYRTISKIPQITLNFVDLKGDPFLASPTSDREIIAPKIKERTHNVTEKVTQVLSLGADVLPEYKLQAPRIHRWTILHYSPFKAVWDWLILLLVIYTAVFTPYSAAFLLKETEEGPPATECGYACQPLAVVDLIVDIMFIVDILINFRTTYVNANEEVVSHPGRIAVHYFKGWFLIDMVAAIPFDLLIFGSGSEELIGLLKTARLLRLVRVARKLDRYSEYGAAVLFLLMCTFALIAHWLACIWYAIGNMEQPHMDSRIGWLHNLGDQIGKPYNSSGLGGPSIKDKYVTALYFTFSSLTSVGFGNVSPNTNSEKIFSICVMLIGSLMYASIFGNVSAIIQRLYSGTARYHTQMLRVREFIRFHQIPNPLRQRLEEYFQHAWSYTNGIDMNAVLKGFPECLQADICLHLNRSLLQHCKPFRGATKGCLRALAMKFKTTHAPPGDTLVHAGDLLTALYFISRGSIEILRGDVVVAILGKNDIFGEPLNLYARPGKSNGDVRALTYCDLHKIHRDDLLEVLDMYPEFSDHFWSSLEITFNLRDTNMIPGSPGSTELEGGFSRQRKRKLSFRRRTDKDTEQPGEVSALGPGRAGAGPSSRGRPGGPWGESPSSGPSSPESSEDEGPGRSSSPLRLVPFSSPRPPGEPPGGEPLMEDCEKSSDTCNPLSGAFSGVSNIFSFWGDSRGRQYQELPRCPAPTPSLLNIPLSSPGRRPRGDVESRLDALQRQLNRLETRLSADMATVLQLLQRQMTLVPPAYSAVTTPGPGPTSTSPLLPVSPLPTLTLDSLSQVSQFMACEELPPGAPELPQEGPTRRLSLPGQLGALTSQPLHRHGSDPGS
Description: Medium throughput screening of compounds for interaction with the human Ether-a-go-go related gene (hERG) was performed by modification of equilibrium dissociation assays using 125I-labelled peptide BeKm-1. BeKm-1, a scorpion toxin from the Central Asian scorpion Buthus eupeus, selectively blocks the hERG channel. Angelo, K., et al., 2003, Pflugers Arch.-Eur. J. Physiol., 447: 55-63; Chiu, P J S, et al., J. Pharmacol. Sci., 2004, 95: 311-319. Isolated membrane preparations from HEK-293 cells containing transfected hERG channels (hERG K+ Channel Membrane Target Systems™; Cat #, RBHERGM400UA) (Perkin Elmer, Boston, Mass.) were suspended in assay buffer A at a final concentration of 1:150 v/v. Compounds for screening, and non-radiolabelled BeKm-1, as well as 125I-BeKm-1 radioligand (Perkin Elmer; Cat #, NEX-412; Specific Activity 2,200 Ci/mmol), were also reconstituted in Buffer A. Assay components were incubated in 96-well, round-bottom polypropylene plates in the following ratio:
25 μl compound at appropriate concentrations
25 μl radiolabelled BeKm-1 at 0.8 nM (final concentration of 0.1 nM)
150 μl membrane preparation
The assay was incubated with shaking for 1 hr at room temperature. Subsequently, the well contents were transferred to 96-well filtration plates (GF/C multiwell plates (MultiScreen™ HTS; Millipore, 290 Concord Road, Billerica, Mass. 01821 USA; Cat# MSFBN6B-XX pre-soaked in 0.3% polyethyleneimine; Acros Organics, NJ; Cat#178571000). Unbound radioactivity was removed and the membranes washed 4 times with ice-cold Buffer B, under vacuum. Plates were air-dried and bound radioactivity counted on a Packard Top-Count NXT™ microplate scintillation and luminescence counter (Packard Instrument Co., Downers Grove, Ill.). Equilibrium dissociation was analyzed and IC50 and/or Ki values were calculated using GraphPad Prism 4™ software (GraphPad Software, San Diego, Calif.).
Assay Buffer A: ([…] (MP Biomedicals, LLC; 29525 Fountain Parkway, Solon Ohio, 441389; Cat #1688449) in water, pH 7.2 with 1M Tris (Fisher Chemicals, Fair Lawn, N.J. 07410; Cat #, BP-1757-500); 100 μM KCl (Fisher Chemicals, Cat #, BP-366-500); 0.1% BSA (Sigma Aldrich, 3050 Spruce Street, St. Louis, Mo. 63103; Cat #, A3059). Assay Buffer B: 20 mM Tris HCl, pH 7.3; 150 mM NaCl (Fisher Chemicals; Cat #, S78449).
The hERG binding assay results are summarized in Table 2, wherein A represents no measured activity (i.e., a value greater than 100 μM), and B represents a value greater than 10 μM but less than 100 μM and C represents a value less than 10 μM.

CCR3 receptor = target: T2, CCR3 receptor (UniProt P51677); assay: CCR3 Receptor Binding Assay ([125I]-labeled human eotaxin/CCL11 displacement on cells); conditions: 0.1 nM [125I]-labeled human eotaxin/CCL11, 60 min at room temperature
T2 sequence (P51677 1-355): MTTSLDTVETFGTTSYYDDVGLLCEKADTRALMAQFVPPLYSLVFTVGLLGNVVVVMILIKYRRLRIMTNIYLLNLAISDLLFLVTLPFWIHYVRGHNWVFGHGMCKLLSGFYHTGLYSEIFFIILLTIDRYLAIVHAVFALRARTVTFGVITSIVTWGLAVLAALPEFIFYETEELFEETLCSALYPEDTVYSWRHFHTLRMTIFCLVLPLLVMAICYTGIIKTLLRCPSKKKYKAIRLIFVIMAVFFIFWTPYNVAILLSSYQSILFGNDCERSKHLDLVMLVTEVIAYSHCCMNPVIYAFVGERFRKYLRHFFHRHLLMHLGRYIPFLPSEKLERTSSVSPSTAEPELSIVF
Description: Cells were washed once with PBS and resuspended in a binding buffer (25 mM HEPES pH 7.6, 5 mM MgCl2, 1 mM CaCl2, 0.5% BSA, 0.1% NaN3). […] of cell suspension (2×10^5 cells/well) and 0.1 nM [^125I]-labeled human eotaxin/CCL11 (2000 Ci/mmol specific activity) were mixed in a 96-well U-bottom polypropylene plate, and incubated for 60 min at room temperature for the binding reaction. The cell suspension was then transferred to a filtration plate (#MAFB, Millipore), and washed 3 times with the binding buffer containing 0.5 M NaCl, scintillant added, and the radioactivity was counted on a TopCount (Packard). For the determination of non-specific binding, the cell suspension and [^125I]-labeled human eotaxin/CCL11 were incubated in the presence of 500 nM of unlabeled human eotaxin/CCL11. See, lino et al., “Molecular cloning and functional characterization of cynomolgus monkey (Macaca fascicularis) CC chemokine receptor, CCR3,” Cytokine 2002, 19, 276-286.
The biological results are summarized in Table 1, wherein A represents a value no greater than 50 nM, and B represents a value greater than 50 nM but no greater than 500 nM, C represents a value greater than 500 nM but no greater than 5 μM; and D represents a value greater than 5 μM.

Ki (CCR3 receptor) [nM]	SMILES	Ki at 1 h (hERG channel) [nM]	Ki (hERG channel) [nM]
50 to 500	CC(C)NC(=S)N1CCC(NS(=O)(=O)c2cc(C#N)ccc2Oc2cc(Cl)cc(Cl)c2)CC1 [Compound 36]	10000 to 100000	
50 to 500	CC(=O)N1CCC(NS(=O)(=O)c2cc(C#N)ccc2Oc2cc(Cl)cc(Cl)c2)CC1 [Compound 38]	> 100000	
500 to 5000	N#Cc1ccc(Oc2cc(Cl)cc(Cl)c2)c(S(=O)(=O)N2CCC(NC(=O)Nc3cccc(F)c3)CC2)c1 [Compound 52]	> 100000	

Continued, compound first:

SMILES	Ki (CCR3 receptor) [nM]	Ki at 1 h (hERG channel) [nM]	Ki (hERG channel) [nM]
CC(C)(C)OC(=O)N1CCC(NS(=O)(=O)c2cc(C#N)ccc2Oc2cc(Cl)cc(Cl)c2)CC1 [Compound 2]	> 5000	> 100000	
N#Cc1ccc(Oc2cc(Cl)cc(Cl)c2)c(S(=O)(=O)N2CCC(NS(=O)(=O)c3cccc(F)c3)CC2)c1 [Compound 25, N-(1-(5-cyano-2-(3,5-dichlorophenoxy)phenylsulfonyl)piperidin-4-yl)-3-fluorobenzenesulfonamide]	50 to 500		> 100000
Cc1ccc(S(=O)(=O)N2CCC(NS(=O)(=O)c3cc(C#N)ccc3Oc3cc(Cl)cc(Cl)c3)CC2)cc1 [Compound 30, 5-cyano-2-(3,5-dichlorophenoxy)-N-(1-tosylpiperidin-4-yl)benzenesulfonamide]	50 to 500		> 100000
CS(=O)(=O)N1CCC(NS(=O)(=O)c2cc(C#N)ccc2Oc2cc(Cl)cc(Cl)c2)CC1 [Compound 33]	50 to 500	> 100000	
